In patent US10294234B2, “HIV inhibitor compounds” (priority 2017, dated 2019):
Read-outs that look alike come from different tables or passages of the source.

What was measured:
[1] = system: HIV-1 (IIIB) in MT-4 cells; assay: MT-4 HIV assay; type: cell-based; conditions: Human immunodeficiency virus 1, MT4, 120 h
Procedure, shortened: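 Antiviral activity was read by Cell Titer Glo after a 5-day, 37 °C culture of MT-4 cells pre-infected with a 1:250 dilution of HIV-1 (IIIB). Compounds were tested as threefold dilution series in complete RPMI. Controls were no drug, mock infection and 5 uM AZT.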

[2] = for Rat. Pred. Cl.: rat liver microsomes 0.5 mg/mL
Procedure, shortened: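 Each compound (1 uM) is incubated in duplicate with 0.5 mg/mL liver microsomal protein from dog, rat or human plus NADPH-regenerating system. Samples taken at 2, 12, 25, 45 and 65 minutes are deproteinised and quantified by LC/MS/MS. Half-life gives Clint.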

[3] = HIV-1 (IIIB), MT-4 cells, 5 days, Cell Titer Glo, read-out: EC50
[4] = human liver microsomes 0.5 mg/mL, 1 uM compound, NADPH

Human Pred Cl. [2, 4] | Rat. Pred. Cl. ([2]; 1 uM compound, NADPH) | SMILES | EC50 [1, 3] | Human Pred Cl. ([2]; human, microsomes) | EC50 [1]
<0.11 L/H/kg | <0.18 L/H/kg | COC(=O)N[C@H](C(=O)N[C@@H](Cc1ccc(C#Cc2ccc(-c3cn4c(n3)CN(C)C(=O)C4)cc2)cc1)[C@@H](O)CN(Cc1c(F)cc(-c2ccn(C(F)F)n2)cc1F)NC(=O)[C@@H](NC(=O)OC)C(C)(C)C(F)(F)F)C(C)(C)C(F)(F)F [Example 134, Methyl ((5S,8S,9S,14S)-11-(4-(1-(difluoromethyl)-1H-pyrazol-3-yl)-2,6-difluorobenzyl)-16,16,16-trifluoro-9-hydroxy-15,15-dimethyl-8-(4-((4-(7-methyl-6-oxo-5,6,7,8-tetrahydroimidazo[1,2-a]pyrazin-2-yl)phenyl)ethynyl)benzyl)-3,6,13-trioxo-5-(1,1,1-trifluoro-2-methylpropan-2-yl)-2-oxa-4,7,11,12-tetraazahexadecan-14-yl)carbamate] | 5.52 nM |  | 
0.17 L/H/kg | 0.95 L/H/kg | COC(=O)N[C@H](C(=O)N[C@@H](Cc1ccc(C#Cc2ccc(N3C[C@H]4C[C@@H]3CN4C3COC3)nc2)cc1)[C@@H](O)CN(Cc1c(F)cc(-c2cc(F)ccn2)cc1F)NC(=O)[C@@H](NC(=O)OC)C(C)(C)C(F)(F)F)C(C)(C)C(F)(F)F [Example 138, Methyl ((5S,8S,9S,14S)-11-(2,6-difluoro-4-(4-fluoropyridin-2-yl)benzyl)-16,16,16-trifluoro-9-hydroxy-15,15-dimethyl-8-(4-((6-((1R,4R)-5-(oxetan-3-yl)-2,5-diazabicyclo[2.2.1]heptan-2-yl)pyridin-3-yl)ethynyl)benzyl)-3,6,13-trioxo-5-(1,1,1-trifluoro-2-methylpropan-2-yl)-2-oxa-4,7,11,12-tetraazahexadecan-14-yl)carbamate] | 2.32 nM |  | 
 |  | COC(=O)N[C@H](C(=O)N[C@@H](Cc1ccc(C#Cc2ccc(N3CC4CCC(C3)N4C3(C)COC3)nc2)cc1)[C@@H](O)CN(Cc1c(F)cc(-c2ccn(C(F)F)n2)cc1F)NC(=O)[C@@H](NC(=O)OC)C(C)(C)C(F)(F)F)C(C)(C)C(F)(F)F [Example 144, Methyl ((5S,8S,9S,14S)-11-(4-(1-(difluoromethyl)-1H-pyrazol-3-yl)-2,6-difluorobenzyl)-16,16,16-trifluoro-9-hydroxy-15,15-dimethyl-8-(4-((6-(8-(3-methyloxetan-3-yl)-3,8-diazabicyclo[3.2.1]octan-3-yl)pyridin-3-yl)ethynyl)benzyl)-3,6,13-trioxo-5-(1,1,1-trifluoro-2-methylpropan-2-yl)-2-oxa-4,7,11,12-tetraazahexadecan-14-yl)carbamate] | 5.12 nM | 0.95 L/H/kg | 
<0.11 L/H/kg |  | COC(=O)N[C@H](C(=O)N[C@@H](Cc1ccc(C#Cc2ccc(N3CCN([C@H]4CCOC4)CC3)nc2)cc1)[C@@H](O)CN(Cc1c(F)cc(-c2ccn(C(F)F)n2)cc1F)NC(=O)[C@@H](NC(=O)OC)C(C)(C)C(F)(F)F)C(C)(C)C(F)(F)F [Example 145, Methyl ((5S,8S,9S,14S)-11-(4-(1-(difluoromethyl)-1H-pyrazol-3-yl)-2,6-difluorobenzyl)-16,16,16-trifluoro-9-hydroxy-15,15-dimethyl-3,6,13-trioxo-8-(4-((6-(4-((S)-tetrahydrofuran-3-yl)piperazin-1-yl)pyridin-3-yl)ethynyl)benzyl)-5-(1,1,1-trifluoro-2-methylpropan-2-yl)-2-oxa-4,7,11,12-tetraazahexadecan-14-yl)carbamate] |  |  | 5.06 nM
